# Laboratory results taken from patent US9642853B2, “Stable pharmaceutical composition containing folates” (APROFOL AG, priority 2013, dated 2017).
# Legend:
# [1] = refrigerator: 2 to 8° C.; cited from earlier work
# Solubility in water = type: physicochemical
solubility in water (Solubility in water),Structure (SMILES),true solubility of leucovorin (calculated as folinic acid) [1]
–,"Nc1nc2c(c(=O)[nH]1)N(C=O)C(CNc1ccc(C(=O)N[C@@H](CCC(=O)O)C(=O)O)cc1)CN2 (single isomer, unassigned) [leucovorin]",3 mg per ml
almost insoluble in water,Nc1nc2c(c(=O)[nH]1)N(C=O)C(CNc1ccc(C(=O)NC(CCC(=O)[O-])C(=O)[O-])cc1)CN2.[Zn+2] (centres unmarked) [leucovorin zinc],–
